What was measured:
[1] = Company studies of solubility and sustained release
[2] = system: Cell lines of human bladder cancer; assay: MTT viability assay, MMC in DTC-2 versus MMC in saline; type: cell-based; conditions: cell lines exposed to MMC
Method: An in-vitro study was performed to evaluate the efficacy of DTCx materials as cytotoxic agents in the urinary bladder. […] Viability was assessed by MTT assay which tests mitochondrial function.
Cell lines of human bladder cancer were grown in RPMI 1640 medium, supplemented with FBS, 100 U/ml penicillin and […] streptomycin. […] After 2 hours of incubation, medium was replaced with fresh medium for all plates.
The plates were tested by taking out the medium and adding fresh medium containing MTT reagent. All other plates were returned to the incubator for incubation of 24, 72, 120 and 144 h. MTT assays were used to assess toxicity at all time points. The proportion of living cells was calculated by comparison to the control vehicle.
A microplate reader (EL 312e: Bio-Tek Instruments, Winooski VT) was used to evaluate the presence of […] as a color development measured by absorbance spectroscopy at 450 nm. Background optical density (OD) was subtracted from the OD readings of all samples. Cell viability was calculated by dividing the mean OD absorbance values of the treated wells by the mean OD absorbance of the control wells. All samples were tested in triplicate.
Reference is now made to FIGS. 3A-3D, which show graphs of cell viability as a function of time for various experiments.

[3] = system: TCC cell cultures and human bladder tumor tissue cultures; conditions: cited from earlier work

| Compound | Solubility and release behaviour in the invented platform [1] | Higher cell kill with 10× longer exposure time or 10× higher concentration [2] | Concentration needed for similar cell kill effect when exposure reduced from 24 hours to two hours [3] |
| --- | --- | --- | --- |
| O=C(O)Cc1ccccc1Nc1c(Cl)cccc1Cl [voltaren] | solubility and first order sustained release |  |  |
| COc1cccc2c1C(=O)c1c(O)c3c(c(O)c1C2=O)C[C@@](O)(C(=O)CO)C[C@@H]3O[C@H]1C[C@H](N)[C@H](O)[C@H](C)O1 [Doxorubicin] | solubility and first order sustained release |  |  |
| CO[C@@]12[C@H](COC(N)=O)C3=C(C(=O)C(C)=C(N)C3=O)N1C[C@@H]1N[C@@H]12 [MMC, Mitomycin C] |  | up to 30 × | ten times higher concentration |
| Nc1ccn([C@@H]2O[C@H](CO)[C@@H](O)C2(F)F)c(=O)n1 [Gemcitabin] | solubility and first order sustained release |  |  |
| Abamectin | solubility and first order sustained release |  |  |

Source: US12440568B2 (priority 2010, dated 2025)
